The values that follow come from US20090018134A1, “Compounds - 945” (AstraZeneca AB, priority 2007, published 2009).

For the test, the target named is T1, mTOR (Homo sapiens, UniProt P42345).
T1 construct: FLAG; made in house
The experiment in a line: In Vitro mTOR Kinase Assay (Echo), Test (a)(ii). It is filed as biochemical. The note with it: read-out: mTOR Kinase Assay (Echo). An outline of the steps:
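Compounds were acoustically dispensed, then incubated with FLAG-tagged mTOR (1362-2549) for 2 hours at room temperature. Reactions were quenched with EDTA plus detection antibody and AlphaScreen beads and left overnight in the dark before reading. Loss of phospho-T389 signal gave IC50 values.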

T1 sequence (P42345 1362-2549): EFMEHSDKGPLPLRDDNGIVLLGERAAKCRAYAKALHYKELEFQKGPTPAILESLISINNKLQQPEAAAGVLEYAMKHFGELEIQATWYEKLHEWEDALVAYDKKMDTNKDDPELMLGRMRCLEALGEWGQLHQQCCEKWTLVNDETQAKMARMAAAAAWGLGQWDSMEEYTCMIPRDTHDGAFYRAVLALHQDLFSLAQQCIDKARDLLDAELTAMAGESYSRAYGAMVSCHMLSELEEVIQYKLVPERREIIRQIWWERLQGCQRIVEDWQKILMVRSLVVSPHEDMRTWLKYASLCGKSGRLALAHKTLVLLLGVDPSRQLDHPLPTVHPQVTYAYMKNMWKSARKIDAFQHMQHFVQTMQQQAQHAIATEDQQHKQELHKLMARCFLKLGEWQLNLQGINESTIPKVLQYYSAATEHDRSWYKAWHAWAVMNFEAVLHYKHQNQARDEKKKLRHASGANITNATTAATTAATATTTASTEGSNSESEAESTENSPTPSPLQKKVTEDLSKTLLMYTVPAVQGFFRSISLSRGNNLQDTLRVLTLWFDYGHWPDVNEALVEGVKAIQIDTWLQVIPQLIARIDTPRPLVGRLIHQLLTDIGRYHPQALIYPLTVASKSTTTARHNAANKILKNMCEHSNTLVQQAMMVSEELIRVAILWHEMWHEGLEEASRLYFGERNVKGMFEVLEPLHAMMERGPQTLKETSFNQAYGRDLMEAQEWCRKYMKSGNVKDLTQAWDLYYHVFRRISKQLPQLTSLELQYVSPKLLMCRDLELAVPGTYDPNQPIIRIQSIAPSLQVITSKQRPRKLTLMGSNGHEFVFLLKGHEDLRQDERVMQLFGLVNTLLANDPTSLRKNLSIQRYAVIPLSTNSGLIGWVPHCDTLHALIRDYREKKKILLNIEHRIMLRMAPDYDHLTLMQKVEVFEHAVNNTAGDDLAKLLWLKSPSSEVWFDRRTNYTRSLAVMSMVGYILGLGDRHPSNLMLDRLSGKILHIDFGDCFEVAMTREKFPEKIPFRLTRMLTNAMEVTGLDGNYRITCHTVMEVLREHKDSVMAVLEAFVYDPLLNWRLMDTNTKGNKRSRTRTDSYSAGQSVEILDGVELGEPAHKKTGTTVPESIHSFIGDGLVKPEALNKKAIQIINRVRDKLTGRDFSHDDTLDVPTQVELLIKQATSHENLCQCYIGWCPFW

With `CC(C)NC(=O)Nc1ccc(-c2nc(N3CCOC[C@@H]3C)cc(C3(S(=O)(=O)C(C)C)CC3)n2)cc1` [Example 7b, 1-[4-[4-[(3S)-3-methylmorpholin-4-yl]-6-(1-propan-2-ylsulfonylcyclopropyl)pyrimidin-2-yl]phenyl]-3-propan-2-yl-urea], the IC50 was 18.1 nM.
Consider `CC(C)S(=O)(=O)C1(c2cc(N3CCOC[C@@H]3C)nc(-c3ccc(NC(=O)NC4CCC4)cc3)n2)CC1` [Example 7c, 3-cyclobutyl-1-[4-[4-[(3S)-3-methylmorpholin-4-yl]-6-(1-propan-2-ylsulfonylcyclopropyl)pyrimidin-2-yl]phenyl]urea], for which the IC50 is 6.46 nM.
Consider `CC(C)S(=O)(=O)C1(c2cc(N3CCOC[C@@H]3C)nc(-c3ccc(NC(=O)NC4CC4)cc3)n2)CC1` [Example 7d, 3-cyclopropyl-1-[4-[4-[(3S)-3-methylmorpholin-4-yl]-6-(1-propan-2-ylsulfonylcyclopropyl)pyrimidin-2-yl]phenyl]urea], for which the IC50 amounted to 3.8 nM.
Next, `CC(C)S(=O)(=O)C1(c2cc(N3CCOC[C@@H]3C)nc(-c3ccc(NC(=O)NCCO)cc3)n2)CC1` [Example 7e, 3-(2-hydroxyethyl)-1-[4-[4-[(3S)-3-methylmorpholin-4-yl]-6-(1-propan-2-ylsulfonylcyclopropyl)pyrimidin-2-yl]phenyl]urea]: 2.12 nM; `CC(C)S(=O)(=O)C1(c2cc(N3CCOC[C@@H]3C)nc(-c3ccc(NC(=O)NC(C)(C)CO)cc3)n2)CC1` [Example 7f, 3-(1-hydroxy-2-methyl-propan-2-yl)-1-[4-[4-[(3S)-3-methylmorpholin-4-yl]-6-(1-propan-2-ylsulfonylcyclopropyl)pyrimidin-2-yl]phenyl]urea]: 9.15 nM; `CC(C)S(=O)(=O)C1(c2cc(N3CCOC[C@@H]3C)nc(-c3ccc(NC(=O)NCCN(C)C)cc3)n2)CC1` [Example 7g, 3-(2-dimethylaminoethyl)-1-[4-[4-[(3S)-3-methylmorpholin-4-yl]-6-(1-propan-2-ylsulfonylcyclopropyl)pyrimidin-2-yl]phenyl]urea]: 211 nM.
As for `CCCNC(=O)Nc1ccc(-c2nc(N3CCOC[C@@H]3C)cc(C3(S(=O)(=O)C(C)C)CC3)n2)cc1` [Example 7h, 3-[4-[4-[(3S)-3-methylmorpholin-4-yl]-6-(1-propan-2-ylsulfonylcyclopropyl)pyrimidin-2-yl]phenyl]-1-propyl-urea], the figure is 11.6 nM; as for `CC(C)CNC(=O)Nc1ccc(-c2nc(N3CCOC[C@@H]3C)cc(C3(S(=O)(=O)C(C)C)CC3)n2)cc1` [Example 7i, 1-[4-[4-[(3S)-3-methylmorpholin-4-yl]-6-(1-propan-2-ylsulfonylcyclopropyl)pyrimidin-2-yl]phenyl]-3-(2-methylpropyl)urea], 18.2 nM; as for `CC(C)S(=O)(=O)C1(c2cc(N3CCOC[C@@H]3C)nc(-c3ccc(NC(=O)NCCCO)cc3)n2)CC1` [Example 7j, 3-(3-hydroxypropyl)-1-[4-[4-[(3S)-3-methylmorpholin-4-yl]-6-(1-propan-2-ylsulfonylcyclopropyl)pyrimidin-2-yl]phenyl]urea], 10.5 nM.
Next, `CC(C)S(=O)(=O)C1(c2cc(N3CCOC[C@@H]3C)nc(-c3ccc(NC(=O)Nc4ccc(C(F)(F)F)cc4)cc3)n2)CC1` [Example 7k, 1-[4-[4-[(3S)-3-methylmorpholin-4-yl]-6-(1-propan-2-ylsulfonylcyclopropyl)pyrimidin-2-yl]phenyl]-3-[4-(trifluoromethyl)phenyl]urea]: 4.82 nM; `CC(C)S(=O)(=O)C1(c2cc(N3CCOC[C@@H]3C)nc(-c3ccc(NC(=O)Nc4ccccn4)cc3)n2)CC1` [Example 7l, 1-[4-[4-[(3S)-3-methylmorpholin-4-yl]-6-(1-propan-2-ylsulfonylcyclopropyl)pyrimidin-2-yl]phenyl]-3-pyridin-2-yl-urea]: 9.13 nM.
